Data as given in ChEMBL document CHEMBL4732213, “Discovery of novel ceramide analogs with favorable pharmacokinetic properties and combination with AKT inhibitor against colon cancer” (Eur J Med Chem, 2021).
Calls of active or inactive are those of the source. No cut-off for these calls is given here.

Key:
[1] = test system: HT-29; experiment: Upregulation of p21 protein expression in human HT29 cells at 20 uM incubated for 24 hrs in presence of 10 uM AKT inhibitor MK2206 by Western blotting analysis; format: functional, cell-based
[2] = test system: HT-29; experiment: Down regulation of CDK6 expression in human HT29 cells at 20 uM incubated for 24 hrs in presence of 10 uM AKT inhibitor MK2206 by Western blotting analysis; format: functional, cell-based
[3] = test system: HT-29; experiment: Down regulation of p-RB expression in human HT29 cells at 20 uM incubated for 24 hrs by Western blotting analysis; format: functional, cell-based
[4] = test system: HT-29; experiment: Upregulation of p21 protein expression in human HT29 cells at 20 uM incubated for 24 hrs by Western blotting analysis; format: functional, cell-based
[5] = test system: HT-29; experiment: Synergistic antiproliferative activity against human HT29 cells assessed as combination index at 20 uM after 72 hrs in presence of 5 uM AKT inhibitor MK2206 by Chou-Talalay method; format: functional
[6] = test system: SW480; experiment: Additive antiproliferative activity against human SW480 cells assessed as combination index at 40 uM after 72 hrs in presence of 20 uM AKT inhibitor MK2206 by Chou-Talalay method; format: functional
[7] = test system: SW480; experiment: Antiproliferative activity against human SW480 cells measured after 72 hrs by sulforhodamine B assay; format: functional, cell-based; details: SW480, 72 h
[8] = AUC(0 to infinity) in BALB/c mouse at 50 mg/kg, ip; format: ADME, organism-based; parameters: time infinity, route intraperitoneal, dose 50 mg/kg; details: in vivo
[9] = test system: HT-29; experiment: Induction of apoptosis in human HT29 cells assessed as increase in caspase-3 activity at 20 uM after 24 hrs in presence of 10 uM AKT inhibitor MK2206 by Western blot analysis; format: functional, cell-based
[10] = Cmax in BALB/c mouse at 50 mg/kg, ip; format: ADME, organism-based; parameters: route intraperitoneal, dose 50 mg/kg; details: in vivo
[11] = test system: HT-29; experiment: Antiproliferative activity against human HT-29 cells measured after 72 hrs by sulforhodamine B assay; format: functional, cell-based; details: HT-29, 72 h
[12] = AUC(0 to t) in BALB/c mouse at 10 mg/kg, iv; format: ADME, organism-based; parameters: dose 10 mg/kg; details: in vivo
[13] = test system: SW480; experiment: Additive antiproliferative activity against human SW480 cells assessed as combination index at 10 uM after 72 hrs in presence of 5 uM AKT inhibitor MK2206 by Chou-Talalay method; format: functional
[14] = test system: HT-29; experiment: Antitumor activity against human HT-29 cells xenografted in BALB/c nude mouse assessed as tumor growth inhibition at 100 mg/kg/day, ip measured every 3 days by electronic caliper method; format: functional; details: HT-29, ip, 72 h, time 3 day, read-out: TGI
[15] = test system: LoVo; experiment: Antiproliferative activity against human Lovo cells measured after 72 hrs by sulforhodamine B assay; format: functional, cell-based
[16] = Antiproliferative activity against human SNU878 cells measured after 72 hrs by sulforhodamine B assay; format: functional, cell-based; details: SNU878, 72 h
[17] = test system: HT-29; experiment: Induction of apoptosis in human HT29 cells at 15 uM after 48 hrs by Annexin-V-FITC/PI staining based flow cytometric analysis; format: functional, cell-based
[18] = test system: T84; experiment: Synergistic antiproliferative activity against human T84 cells assessed as combination index at 20 uM after 72 hrs in presence of 10 uM AKT inhibitor MK2206 by Chou-Talalay method; format: functional
[19] = test system: COLO-678; experiment: Antiproliferative activity against human COLO 678 cells measured after 72 hrs by sulforhodamine B assay; format: functional, cell-based; details: COLO-678, 72 h
[20] = test system: HCT-8; experiment: Antiproliferative activity against human HCT8 cells measured after 72 hrs by sulforhodamine B assay; format: functional, cell-based; details: HCT-8, 72 h
[21] = test system: HT-29; experiment: Induction of cell cycle arrest in human HT29 cells assessed as accumulation at G0/G1 phase at 20 uM after 24 hrs by PI staining based flow cytometry analysis; format: functional
[22] = test system: HCT-116; experiment: Antiproliferative activity against human HCT116 cells measured after 72 hrs by sulforhodamine B assay; format: functional, cell-based; details: HCT-116, 72 h
[23] = test system: HT-29; experiment: Synergistic antiproliferative activity against human HT29 cells assessed as combination index at 30 uM after 72 hrs in presence of 7.5 uM AKT inhibitor MK2206 by Chou-Talalay method; format: functional

In the case of `CCCCCCCOc1ccc(CCC(CO)(CO)NC(C)=O)c2ccccc12`, the Activity [1] is reported as “Active”, the Activity [2] is reported as “Active” and the Activity [3] is reported as “inactive”. The Activity [4] was “inactive”, the CI [5] was 0.77 and the CI [6] was 0.97. The IC50 [7] was 22.7 µM, the AUC(0-inf) [8] was 15700 ng·h/mL and the Activity [9] was “Active”. For the same molecule, the Cmax [10] was 6030 ng/mL, the IC50 [11] was 17.6 µM and the AUC(0-t) [12] was 3060 ng·h/mL. For the same molecule, the CI [13] was 0.9, the inhibition in vivo at 100 mg/kg/day [14] was 25.4% and the IC50 [15] was 26.4 µM. The IC50 [16] was 6.68 µM, the Activity [17] was “inactive” and the CI [18] was 0.65. For the same molecule, the IC50 [19] was 20.7 µM, the IC50 [20] was 21.8 µM and the Activity [21] was “inactive”. The IC50 [22] was 25.8 µM and the CI [23] was 0.53.
